Experimental data taken from US10556943B2, “HLA-DR binding peptides and their uses” (priority 2007, dated 2020).

Experiments:
[1] = target: T1, purified HLA DRB1*0901 (Homo sapiens, UniProt P01903+P01911, A100R/A103E/D57H/D86V/F55Y/F60I/F76Y/I96F/K127E/L162R/M171V/P40D/Q125H/Q99R/R33Q/R42F/S133A/S66N/T210M/V115G/W38K/Y107V/Y59G/Y89S); experiment: HLA-DR radioligand binding inhibition assay, DRB1*0901
T1 construct: MHC molecules utilized were purified from EBV transformed homozygous cell lines or single MHC allele transfected 721.221, C1R, or fibroblast lines; made in house; host or cells: EBV transformed homozygous cell lines or single MHC allele transfected 721.221, C1R, or fibroblast lines
Experimental: (§1) Fifteen distinct HLA-DR molecules were used in quantitative assays to measure the binding of peptides to solubilized HLA-DR molecules. […] Briefly, columns of inactivated Sepharose CL4B and Protein A Sepharose were used as pre-columns. HLA-DR molecules were captured by passage of lysates over LB3.1 monoclonal antibody (anti-HLA-DRA) columns. Antibody columns were washed with 10 mM Tris-HCL, pH8.0 with 1% (v/v) NP-40, followed by PBS containing 0.4% (w/v) n-octylglucoside.
(§2) Briefly, 1-10 nM of radiolabeled peptide was co-incubated for 2 days at either room temperature or 37° C. with 1 μM to 1 nM purified HLA-DR molecules in the presence of a cocktail of protease inhibitors. Assays were performed at various pH conditions, ranging from pH 4 to pH 7. […] After incubation, the percentage of HLA-DR-bound radioactivity is determined by capturing HLA-DR/peptide complexes on Optiplates (Packard Instruments, Meriden, Conn.) coated with the LB3.1 antibody and determining bound counts per minute using the TopCount microscintillation counter (Packard Instruments).

[2] = target: T2, purified HLA DRB1*1201 (Homo sapiens, UniProt P01903+P01911, A100R/A169T/D57E/D86V/F55L/H45Y/K41T/L162R/M171V/P40S/Q125H/Q178H/Q39Y/Q99D/R42G/S66L/T262R/V114A/V67L/W38E/Y59H/Y61H/Y89S); experiment: HLA-DR radioligand binding inhibition assay, DRB1*1201; details: column 5 of second part of Table I
T2 construct: MHC molecules utilized were purified from EBV transformed homozygous cell lines or single MHC allele transfected 721.221, C1R, or fibroblast lines; made in house; host or cells: EBV transformed homozygous cell lines or single MHC allele transfected 721.221, C1R, or fibroblast lines
Experimental: as §1, with “n-octylglucoside. […] The pH was reduced to 8.0 and the eluates were concentrated by centrifugation in Centriprep 30 concentrators at 2000 rpm (Amicon, Beverly, Mass.).” for “n-octylglucoside.”
as §2, with “Instruments). […] Competitor peptides are tested in 2-4 complete, independent experiments, at concentrations ranging from 30 μg/mL to 300 pg/mL.” for “Instruments).”

[3] = target: T3, purified HLA DRB1*1302 (Homo sapiens, UniProt P01903+P01911, A100E/A169T/K41T/L162R/M171V/P40S/Q125H/Q178H/Q39Y/Q99D/R42S/S66N/T262R/V115G/W38E/Y61H); experiment: HLA-DR radioligand binding inhibition assay, DRB1*1302; details: column 6 of second part of Table I
T3 construct: MHC molecules utilized were purified from EBV transformed homozygous cell lines or single MHC allele transfected 721.221, C1R, or fibroblast lines; made in house; host or cells: EBV transformed homozygous cell lines or single MHC allele transfected 721.221, C1R, or fibroblast lines
Experimental: as §1, §2

Measured: IC50

T3 sequence (P01903 26-254, other chains not shown): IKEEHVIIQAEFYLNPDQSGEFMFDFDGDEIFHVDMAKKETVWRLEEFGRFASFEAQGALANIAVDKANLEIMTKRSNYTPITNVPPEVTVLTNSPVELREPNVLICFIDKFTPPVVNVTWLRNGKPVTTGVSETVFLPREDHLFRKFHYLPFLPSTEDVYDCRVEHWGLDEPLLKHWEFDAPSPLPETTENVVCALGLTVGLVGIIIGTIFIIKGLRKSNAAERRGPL

CSCC[C@H](NC(=O)[C@H](CCCNC(=N)N)NC(=O)[C@H](CO)NC(=O)[C@H](Cc1ccccc1)NC(=O)[C@H](CCC(=O)O)NC(=O)[C@H](CO)NC(=O)[C@@H](NC(=O)[C@H](CC(C)C)NC(=O)[C@H](CCC(=O)O)NC(=O)[C@H](CCCNC(=N)N)NC(=O)[C@@H](N)Cc1ccccc1)C(C)C)C(=O)N[C@@H](C)C(=O)N[C@@H](CCCNC(=N)N)C(=O)N[C@@H](CC(=O)O)C(=O)N1CCC[C@H]1C(=O)O [Peptide 9019.0096]
> 20 µM: all assays above
